Laboratory results: patent publication US6462198B1, “Carbamic acid derivatives” (Hoffmann-La Roche Inc., priority 1999, dated 2002)

Experiments:
rat mGlu 1a receptor = target: T1, rat mGlu 1a receptor (Rattus norvegicus, UniProt P23385); test: [Ca2+]i measurement (FLIPR) on mGlu 1a transfected EBNA cells; type: cell-based; conditions: for agonist/antagonist: mode of action at group I mGlu receptor, [Ca2+]i FLIPR assay
T1 construct: expressed in transfected cells; host or cells: EBNA cells (transient transfection)
T1 sequence (P23385 19-1199): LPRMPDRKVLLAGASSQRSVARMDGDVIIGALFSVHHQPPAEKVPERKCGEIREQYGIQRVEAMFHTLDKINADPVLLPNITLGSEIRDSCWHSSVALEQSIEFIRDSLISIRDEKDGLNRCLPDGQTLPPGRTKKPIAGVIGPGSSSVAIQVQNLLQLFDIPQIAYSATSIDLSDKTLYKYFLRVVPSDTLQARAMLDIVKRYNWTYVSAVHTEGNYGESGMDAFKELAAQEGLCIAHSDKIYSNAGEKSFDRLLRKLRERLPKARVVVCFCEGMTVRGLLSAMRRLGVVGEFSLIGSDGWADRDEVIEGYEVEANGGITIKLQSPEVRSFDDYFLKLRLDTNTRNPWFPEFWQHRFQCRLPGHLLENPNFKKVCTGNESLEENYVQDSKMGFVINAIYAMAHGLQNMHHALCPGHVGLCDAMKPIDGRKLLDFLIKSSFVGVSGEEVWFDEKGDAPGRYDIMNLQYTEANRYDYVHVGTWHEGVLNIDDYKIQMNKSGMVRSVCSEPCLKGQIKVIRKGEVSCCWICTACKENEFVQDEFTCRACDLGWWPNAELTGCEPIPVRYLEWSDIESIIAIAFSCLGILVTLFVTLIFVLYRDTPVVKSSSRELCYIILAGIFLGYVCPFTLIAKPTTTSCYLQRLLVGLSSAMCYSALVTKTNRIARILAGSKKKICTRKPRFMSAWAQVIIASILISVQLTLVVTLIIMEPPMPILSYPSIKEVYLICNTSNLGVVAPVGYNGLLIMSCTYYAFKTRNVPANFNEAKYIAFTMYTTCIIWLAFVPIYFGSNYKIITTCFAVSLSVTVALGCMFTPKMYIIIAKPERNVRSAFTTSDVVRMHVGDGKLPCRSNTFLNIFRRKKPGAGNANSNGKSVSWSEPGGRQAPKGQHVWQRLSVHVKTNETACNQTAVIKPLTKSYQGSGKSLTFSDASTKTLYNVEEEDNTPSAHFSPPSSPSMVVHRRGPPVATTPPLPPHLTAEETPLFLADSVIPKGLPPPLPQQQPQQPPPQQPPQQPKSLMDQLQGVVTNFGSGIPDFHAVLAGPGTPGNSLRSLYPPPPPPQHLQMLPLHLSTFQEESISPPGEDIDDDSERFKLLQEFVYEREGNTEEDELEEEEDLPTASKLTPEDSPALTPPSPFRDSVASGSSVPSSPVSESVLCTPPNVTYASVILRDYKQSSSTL

[1] = compounds acting as antagonists, tested against 10 μM glutamate as agonist

Compound | melting point | also measured
CCCCOC(=O)NC(=O)C(c1ccccc1)c1ccccc1 | 82 to 84 °C | –
CCOC(=O)NC(=O)C1c2ccccc2Sc2ccccc21 | 179 to 182 °C | –
O=C(NC(=O)C(c1ccccc1)c1ccccc1)OCCN1CCOCC1 | 135 to 137 °C | –
CCCCSC(=O)NC(=O)C(c1ccccc1)c1ccccc1 | 99 °C | –
CCOC(=O)NC(=O)C(c1cccc(C)c1)c1ncc(C(F)(F)F)cc1Cl (centres unmarked) | 146 to 147 °C | –
CCOC(=O)NC(=O)C1c2ccccc2Oc2c1cccc2C(F)(F)F (centres unmarked) | 196 to 198 °C | –
O=C(NC(=O)C(c1ccccc1)c1ccccc1)C1CC1 | 178 °C | –
CCCC(=O)NC(=O)C1c2ccccc2Oc2ccccc21 | 222 °C | –
CCCC(=O)NC(=O)C(c1ccccc1)c1ccccc1 | 205 °C | –
CC(C)(C)OC(=O)NC(=O)C(c1ccccc1)c1ccccc1 | 160 to 162 °C | –
CCOC(=O)NC(=O)C1c2ccccc2Oc2ccccc21 | 228 °C (dec.) | –
CCOC(=O)NC(=O)C1c2ccccc2Oc2ccc(Br)cc21 (racemic) | 203 °C | –
C=CCOC(=O)NC(=O)C(c1ccccc1)c1ccccc1 [Example 3, Diphenylacetyl-carbamic acid allyl ester] | 118 to 120 °C | –
CC(C)OC(=O)NC(=O)C(c1ccccc1)c1ccccc1 [Example 4, Diphenylacetyl-carbamic acid isopropyl ester] | 122 to 124 °C | –
O=C(NC(=O)C(c1ccccc1)c1ccccc1)OCC1CC1 [Example 10, Diphenylacetyl-carbamic acid cyclopropylmethyl ester] | 108 °C | –
(2,2-Diphenyl-propionyl)-carbamic acid methyl ester [Example 23] | – | IC50 (rat mGlu 1a receptor; [1]): 6.31 µM; agonist/antagonist (rat mGlu 1a receptor): antagonist

Second part, led by results:

melting point | Compound | also measured
89 °C | C=CCOC(=O)NC(=O)C(C)(c1ccccc1)c1ccccc1 [Example 24, (2,2-Diphenyl-propionyl)-carbamic acid allyl ester] | IC50 (rat mGlu 1a receptor; [1]): 2.79 µM
83 °C | CCCCOC(=O)NC(=O)C(C)(c1ccccc1)c1ccccc1 [Example 25, (2,2-Diphenyl-propionyl)-carbamic acid butyl ester] | IC50 (rat mGlu 1a receptor; [1]): 1.38 µM
188 to 191 °C | O=C(Nc1ncco1)C1c2ccccc2Sc2ccccc21 [Example 31, 9H-Thioxanthene-9-carboxylic acid oxazol-2-ylamide] | –
151 to 154 °C | CCCCOC(=O)NC(=O)C1c2ccccc2Sc2ccccc21 [Example 32, (9H-Thioxanthene-9-carbonyl)-carbamic acid butyl ester] | agonist/antagonist (rat mGlu 1a receptor): agonist
83 °C | CCCCC(=O)NC(=O)C(c1ccccc1)c1ccccc1 [Example 43, Pentanoic acid diphenylacetyl-amide] | –
114 to 115 °C | COCCc1nnc(NC(=O)C(c2ccccc2)c2ccccc2)o1 [Example 55, N-[5-(2-Methoxy-ethyl)-[1,3,4]oxadiazol-2-yl]-2,2-diphenyl-acetamide] | –
159 to 160 °C | O=C(Nc1nnc(C2CC2)o1)C(c1ccccc1)c1ccccc1 [Example 57, N-(5-Cyclopropyl-[1,3,4]oxadiazol-2-yl)-2,2-diphenyl-acetamide] | –
158 to 159 °C | O=C(Nc1nnc(CC2CC2)o1)C(c1ccccc1)c1ccccc1 [Example 59, N-(5-Cyclopropylmethyl-[1,3,4]oxadiazol-2-yl)-2,2-diphenyl-acetamide] | –
148 to 149 °C | CCc1cnc(NC(=O)C(c2ccccc2)c2ccccc2)o1 [Example 63, N-(5-Ethyl-oxazol-2-yl)-2,2-diphenyl-acetamide] | –
166 to 168 °C | Cc1cnc(NC(=O)C(c2ccccc2)c2ccccc2)o1 [Example 65, N-(5-Methyl-oxazol-2-yl)-2,2-diphenyl-acetamide] | IC50 (rat mGlu 1a receptor; compounds acting as agonists, activation curve): 0.4 µM; agonist/antagonist (rat mGlu 1a receptor): agonist
